Measured values reported in patent US20240261367A1, “CYCLIC PEPTIDE IMMUNOMODULATORS” (priority 2021, published 2024).
Starred links: 1 amine or outer side, 2 acyl side, 3 side chain; linkers in the order of their positions; H or OH if unused. Positions of bridges follow the written chain, without caps; N, C: chain ends. Non-standard residues stand in square brackets, D forms with d. Residues, ends and D or L forms follow the SMILES beside them. X2 = COC(=O)CCCCCCCCCCCCCCCCC(=O)N[C@@H](CCC(=O)NCCOCCOCCOCCOCCOCCOCCOCCOCCOCCOCCOCCn1cc(C[C@H](NC(=N)CNC(=O)[C@H](CSCC(=O)[*:1])NC(=N)[C@H](CC(C)C)N[*:2])C(=O)OC)nn1)C(=O)OC; Ala(1-CH2COOH-inden-3-yl) = N[C@@H](CC1=CC(CC(=O)O)c2ccccc21)C(=O)O; Hyp = O=C(O)[C@@H]1C[C@@H](O)CN1; NMeNle = CCCC[C@H](NC)C(=O)O; NMeA = CN[C@@H](C)C(=O)O; Dab = NCC[C@H](N)C(=O)O; Dap = NC[C@H](N)C(=O)O

Biological target: T1, PD-1/PD-L1 (Homo sapiens, UniProt Q9NZQ7)
T1 construct: TVMV protease site linker (C); made in house; host or cells: HEK293T cells
T1 sequence (Q9NZQ7 18-239): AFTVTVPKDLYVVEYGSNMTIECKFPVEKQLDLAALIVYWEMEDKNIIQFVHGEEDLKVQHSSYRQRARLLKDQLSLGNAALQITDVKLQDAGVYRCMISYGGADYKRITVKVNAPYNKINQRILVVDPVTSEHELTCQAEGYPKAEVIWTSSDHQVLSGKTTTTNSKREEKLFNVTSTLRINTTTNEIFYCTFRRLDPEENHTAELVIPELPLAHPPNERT
Assay: PD-1/PD-L1 Homogenous Time-Resolved Fluorescence (HTRF) binding assay
Settings: PD-L1-His (10 nM) pre-incubated with inhibitor 15 m, then PD-1-Ig (20 nM)
Source text: Methods for Testing the Ability of Macrocyclic Peptides to Compete for the Binding of PD-1 to PD-L1 Using Homogenous Time-Resolved Fluorescence (HTRF) Binding Assays
The ability of the compounds of formula (I) to bind to PD-L1 was investigated using a PD-1/PD-L1 Homogenous Time-Resolved Fluorescence (HTRF) binding assay.
Homogenous Time-Resolved Fluorescence (HTRF) Binding Assay
The interaction of PD-1 and PD-L1 can be assessed using soluble, purified preparations of the extracellular domains of the two proteins. The PD-1 and PD-L1 protein extracellular domains were expressed as fusion proteins with detection tags, for PD-1, the tag was the Fc portion of Immunoglobulin (PD-1-Ig) and for PD-L1 it was the 6 histidine motif (PD-L1-His). All binding studies were performed in an HTRF assay buffer consisting of dPBS supplemented with 0.1% […] bovine serum albumin and 0.05% (v/v) Tween-20. […] HTRF detection was achieved using europium crypate-labeled anti-Ig (1 nM final) and allophycocyanin (APC) labeled anti-His (20 nM final). Antibodies were diluted in HTRF detection buffer and 5 μl was dispensed on top of the binding reaction. The reaction mixture was allowed to equilibrate for 30 minutes and the resulting signal (665 nm/620 nm ratio) was obtained using an EnVision fluorometer. Additional binding assays were established between the human proteins PD-1-Ig/PD-L2-His (20 & 5 nM, respectively) and CD80-His/PD-L1-Ig (100 & 10 nM, respectively).
Recombinant Proteins: Human PD-1 (25-167) with a C-terminal human Fc domain of immunoglobulin G (Ig) epitope tag [hPD-1 (25-167)-3S-IG] and human PD-L1 (18-239) with a C-terminal His epitope tag [hPD-L1(18-239)-TVMV-His] were expressed in HEK293T cells and purified sequentially by ProteinA affinity chromatography and size exclusion chromatography. Human PD-L2-His and CD80-His was obtained through commercial sources.
Table 1 lists the IC50 values for representative examples of this disclosure measured in the PD-1/PD-L1 Homogenous Time-Resolved Fluorescence (HTRF) binding assay.

Row | Structure (SMILES) | IC50 [nM]
1 | C#CCOC(=O)NC[C@@H]1NC(=O)[C@@H]2CCCN2C(=O)[C@H](CC(N)=O)NC(=O)[C@H](C)N(C)C(=O)[C@H](Cc2ccc(O)cc2)NC(=O)CSC[C@@H](C(=O)NCC(=O)N[C@@H](Cc2cn(CCOCCOCCOCCOCCOCCOCCOCCOCCOCCOCCOCCNC(=O)CC[C@H](NC(=O)CCCCCCCCCCCCCCCCC(=O)O)C(=O)O)nn2)C(=O)O)NC(=O)[C@H](CC(C)C)NC(=O)[C@H](CCCC)N(C)C(=O)[C@H](CCCC)N(C)C(=O)[C@H](CC2=CC(CC(=O)O)c3ccccc32)NC(=O)[C@H](CCN)NC(=O)[C@H](Cc2c[nH]c3ccccc23)NC(=O)[C@@H]2C[C@@H](O)CN2C(=O)[C@H](CC(C)C)NC1=O (stereo partly drawn) [Example 1010] | 10
2 | CCCC[C@H]1C(=O)N(C)[C@@H](CCCC)C(=O)N[C@@H](CC(C)C)C(=O)N[C@H](C(=O)NCC(=O)N[C@@H](Cc2cn(CCOCCOCCOCCOCCOCCOCCOCCOCCOCCOCCOCCNC(=O)CC[C@H](NC(=O)CCCCCCCCCCCCCCCCC(=O)OC)C(=O)OC)nn2)C(=O)O)CSCC(=O)N[C@@H](Cc2ccc(O)cc2)C(=O)N(C)[C@@H](C)C(=O)N[C@@H](CC(N)=O)C(=O)N2CCC[C@H]2C(=O)N[C@@H](CN)C(=O)N[C@@H](CC(C)C)C(=O)N2C[C@H](O)C[C@H]2C(=O)N[C@@H](Cc2c[nH]c3ccccc23)C(=O)N[C@@H](CCN)C(=O)N[C@@H](CC2=CC(CC(=O)O)c3ccccc32)C(=O)N1C (stereo partly drawn) [Example 1011] | 11
3 | CCCC[C@H]1C(=O)N(C)[C@@H](CCCC)C(=O)N[C@@H](CC(C)C)C(=N)N[C@H](C(=O)NCC(=N)N[C@@H](Cc2cn(CCOCCOCCOCCOCCOCCOCCOCCOCCOCCOCCOCCNC(=O)CC[C@H](NC(=O)CCCCCCCCCCCCCCCCC(=O)OC)C(=O)OC)nn2)C(=O)OC)CSCC(=O)N[C@@H](Cc2ccc(O)cc2)C(=O)N(C)[C@@H](C)C(=O)N[C@@H](CC(N)=O)C(=O)N2CCC[C@H]2C(=O)N[C@@H](CN)C(=O)N[C@@H](CC(C)C)C(=O)N2C[C@H](O)C[C@H]2C(=O)N[C@@H](Cc2c[nH]c3ccccc23)C(=O)N[C@@H](CCN)C(=O)N[C@@H](CC2=CC(CC(=O)O)c3ccccc32)C(=O)N1C (stereo partly drawn) [Example 1012] (Y[NMeA]NP[Dap]L[Hyp]W[Dab][Ala(1-CH2COOH-inden-3-yl)][NMeNle][NMeNle]; linker N-C via X2) | 11
4 | CCCC[C@H]1C(=O)N(C)[C@@H](CCCC)C(=O)N[C@@H](CC(C)C)C(=O)N[C@H](C(=O)NCC(=O)N[C@@H](Cc2cn(CCOCCOCCOCCOCCOCCOCCOCCOCCOCCOCCOCCNC(=O)CC[C@H](NC(=O)CCCCCCCCCCCCCCCCC(=O)O)C(=O)O)nn2)C(=O)O)CSCC(=O)N[C@@H](Cc2ccc(O)cc2)C(=O)N(C)[C@@H](C)C(=O)N[C@@H](CC(N)=O)C(=O)N2CCC[C@H]2C(=O)N[C@@H](CNC(=O)OCCC)C(=O)N[C@@H](CC(C)C)C(=O)N2C[C@H](O)C[C@H]2C(=O)N[C@@H](Cc2c[nH]c3ccccc23)C(=O)N[C@@H](CCN)C(=O)N[C@@H](CC2=CC(CC(=O)O)c3ccccc32)C(=O)N1C (stereo partly drawn) [Example 1013] | 9.3
5 | CCCC[C@H]1C(=O)N(C)[C@@H](CCCC)C(=O)N[C@@H](CC(C)C)C(=O)N[C@H](C(=O)NCC(=O)N[C@@H](Cc2cn(CCOCCOCCOCCOCCOCCOCCOCCOCCOCCOCCOCCNC(=O)CC[C@H](NC(=O)CCCCCCCCCCCCCCCCC(=O)O)C(=O)O)nn2)C(=O)O)CSCC(=O)N[C@@H](Cc2ccc(O)cc2)C(=O)N(C)[C@@H](C)C(=O)N[C@@H](CC(N)=O)C(=O)N2CCC[C@H]2C(=O)N[C@@H](CNC(=O)OCC(C)C)C(=O)N[C@@H](CC(C)C)C(=O)N2C[C@H](O)C[C@H]2C(=O)N[C@@H](Cc2c[nH]c3ccccc23)C(=O)N[C@@H](CCN)C(=O)N[C@@H](CC2=CC(CC(=O)O)c3ccccc32)C(=O)N1C (stereo partly drawn) [Example 1014] | 3.1
6 | CCCC[C@H]1C(=O)N(C)[C@@H](CCCC)C(=O)N[C@@H](CC(C)C)C(=O)N[C@H](C(=O)NCC(=O)N[C@@H](Cc2cn(CCOCCOCCOCCOCCOCCOCCOCCOCCOCCOCCOCCNC(=O)CC[C@H](NC(=O)CCCCCCCCCCCCCCCCC(=O)O)C(=O)O)nn2)C(=O)O)CSCC(=O)N[C@@H](Cc2ccc(O)cc2)C(=O)N(C)[C@@H](C)C(=O)N[C@@H](CC(N)=O)C(=O)N2CCC[C@H]2C(=O)N[C@@H](CNC(=O)OC)C(=O)N[C@@H](CC(C)C)C(=O)N2C[C@H](O)C[C@H]2C(=O)N[C@@H](Cc2c[nH]c3ccccc23)C(=O)N[C@@H](CCN)C(=O)N[C@@H](CC2=CC(CC(=O)O)c3ccccc32)C(=O)N1C (stereo partly drawn) [Example 1016] | 13

The next lines start with the values.

Row | IC50 [nM] | Structure (SMILES)
7 | 6.3 | CCCC[C@H]1C(=O)N(C)[C@@H](CCCC)C(=O)N[C@@H](CC(C)C)C(=O)N[C@H](C(=O)NCC(=O)N[C@@H](Cc2cn(CCOCCOCCOCCOCCOCCOCCOCCOCCOCCOCCOCCNC(=O)CC[C@H](NC(=O)CCCCCCCCCCCCCCCCC(=O)O)C(=O)O)nn2)C(=O)O)CSCC(=O)N[C@@H](Cc2ccc(O)cc2)C(=O)N(C)[C@@H](C)C(=O)N[C@@H](CC(N)=O)C(=O)N2CCC[C@H]2C(=O)N[C@@H](CNC(=O)OC)C(=O)N[C@@H](CC(C)C)C(=O)N2C[C@H](O)C[C@H]2C(=O)N[C@@H](Cc2c[nH]c3ccccc23)C(=O)N[C@@H](CCNC(=O)OC)C(=O)N[C@@H](CC2=CC(CC(=O)O)c3ccccc32)C(=O)N1C (stereo partly drawn) [Example 1019]
8 | 27 | CCCC[C@H]1C(=O)N(C)[C@@H](CCCC)C(=O)N[C@@H](CC(C)C)C(=O)N[C@H](C(=O)NCC(=O)N[C@@H](Cc2cn(CCOCCOCCOCCOCCOCCOCCOCCOCCOCCOCCOCCNC(=O)CC[C@H](NC(=O)CCCCCCCCCCCCCCCCC(=O)O)C(=O)O)nn2)C(=O)O)CSCC(=O)N[C@@H](Cc2ccc(O)cc2)C(=O)N(C)[C@@H](C)C(=O)N[C@@H](CC(N)=O)C(=O)N2CCC[C@H]2C(=O)N[C@@H](CNC(=O)OCc2oc(=O)oc2C)C(=O)N[C@@H](CC(C)C)C(=O)N2C[C@H](O)C[C@H]2C(=O)N[C@@H](Cc2c[nH]c3ccccc23)C(=O)N[C@@H](CCN)C(=O)N[C@@H](CC2=CC(CC(=O)O)c3ccccc32)C(=O)N1C (stereo partly drawn) [Example 1021]
9 | 6.8 | CCCC[C@H]1C(=O)N(C)[C@@H](CCCC)C(=O)N[C@@H](CC(C)C)C(=O)N[C@H](C(=O)NCC(=O)N[C@@H](Cc2cn(CCOCCOCCOCCOCCOCCOCCOCCOCCOCCOCCOCCNC(=O)CC[C@H](NC(=O)CCCCCCCCCCCCCCCCC(=O)O)C(=O)O)nn2)C(=O)O)CSCC(=O)N[C@@H](Cc2ccc(O)cc2)C(=O)N(C)[C@@H](C)C(=O)N[C@@H](CC(N)=O)C(=O)N2CCC[C@H]2C(=O)N[C@@H](CNC(=O)OCc2oc(=O)oc2C)C(=O)N[C@@H](CC(C)C)C(=O)N2C[C@H](O)C[C@H]2C(=O)N[C@@H](Cc2c[nH]c3ccccc23)C(=O)N[C@@H](CCNC(=O)CCc2oc(=O)oc2C)C(=O)N[C@@H](CC2=CC(CC(=O)O)c3ccccc32)C(=O)N1C (stereo partly drawn) [Example 1022]
10 | 13 | CCCC[C@H]1C(=O)N(C)[C@@H](CCCC)C(=O)N[C@@H](CC(C)C)C(=O)N[C@H](C(=O)NCC(=O)N[C@@H](Cc2cn(CCOCCOCCOCCOCCOCCOCCOCCOCCOCCOCCOCCNC(=O)CC[C@H](NC(=O)CCCCCCCCCCCCCCCCC(=O)O)C(=O)OCC)nn2)C(=O)O)CSCC(=O)N[C@@H](Cc2ccc(O)cc2)C(=O)N(C)[C@@H](C)C(=O)N[C@@H](CC(N)=O)C(=O)N2CCC[C@H]2C(=O)N[C@@H](CN)C(=O)N[C@@H](CC(C)C)C(=O)N2C[C@H](O)C[C@H]2C(=O)N[C@@H](Cc2c[nH]c3ccccc23)C(=O)N[C@@H](CCN)C(=O)N[C@@H](CC2=CC(CC(=O)O)c3ccccc32)C(=O)N1C (stereo partly drawn) [Example 1024]
11 | 12 | CCCC[C@H]1C(=O)N(C)[C@@H](CCCC)C(=O)N[C@@H](CC(C)C)C(=O)N[C@H](C(=O)NCC(=O)N[C@@H](Cc2cn(CCOCCOCCOCCOCCOCCOCCOCCOCCOCCOCCOCCNC(=O)CC[C@H](NC(=O)CCCCCCCCCCCCCCCCC(=O)O)C(=O)O)nn2)C(=O)OCC)CSCC(=O)N[C@@H](Cc2ccc(O)cc2)C(=O)N(C)[C@@H](C)C(=O)N[C@@H](CC(N)=O)C(=O)N2CCC[C@H]2C(=O)N[C@@H](CN)C(=O)N[C@@H](CC(C)C)C(=O)N2C[C@H](O)C[C@H]2C(=O)N[C@@H](Cc2c[nH]c3ccccc23)C(=O)N[C@@H](CCN)C(=O)N[C@@H](CC2=CC(CC(=O)O)c3ccccc32)C(=O)N1C (stereo partly drawn) [Example 1025]
12 | 2.9 | CCCC[C@H]1C(=O)N(C)[C@@H](CCCC)C(=O)N[C@@H](CC(C)C)C(=O)N[C@H](C(=O)NCC(=O)N[C@@H](Cc2cn(CCOCCOCCOCCOCCOCCOCCOCCOCCOCCOCCOCCNC(=O)CC[C@H](NC(=O)CCCCCCCCCCCCCCCCC(=O)O)C(=O)OC)nn2)C(=O)O)CSCC(=O)N[C@@H](Cc2ccc(O)cc2)C(=O)N(C)[C@@H](C)C(=O)N[C@@H](CC(N)=O)C(=O)N2CCC[C@H]2C(=O)N[C@@H](CN)C(=O)N[C@@H](CC(C)C)C(=O)N2C[C@H](O)C[C@H]2C(=O)N[C@@H](Cc2c[nH]c3ccccc23)C(=O)N[C@@H](CCN)C(=O)N[C@@H](CC2=CC(CC(=O)O)c3ccccc32)C(=O)N1C (stereo partly drawn) [Example 1026]
